From patent US7470702B2, “Benzimidazoles” (Merck Patent GmbH, priority 2003, dated 2008)

Biological target: TIE-2 (Homo sapiens, UniProt Q02763)
Experiment: Inhibition of TIE-2 (flashplate kinase assay, poly(Glu, Tyr) phosphorylation, 33P-ATP)
Format: biochemical
Description: The TIE-2 tests can be carried out, for example, analogously to the methods indicated in WO 02/44156.
The assay determines the inhibiting activity of the substances to be tested in the phosphorylation of the substrate poly(Glu, Tyr) by Tie-2 kinase in the presence of radioactive ^33P-ATP. The phosphorylated substrate binds to the surface of a “flashplate” microtitre plate during the incubation time. After removal of the reaction mixture, the microtitre plate is washed a number of times and the radioactivity on its surface is subsequently measured. An inhibiting effect of the substances to be measured results in lower radioactivity compared with an undisturbed enzymatic reaction.

TIE-2, sequence (Q02763 23-1124, species assumed): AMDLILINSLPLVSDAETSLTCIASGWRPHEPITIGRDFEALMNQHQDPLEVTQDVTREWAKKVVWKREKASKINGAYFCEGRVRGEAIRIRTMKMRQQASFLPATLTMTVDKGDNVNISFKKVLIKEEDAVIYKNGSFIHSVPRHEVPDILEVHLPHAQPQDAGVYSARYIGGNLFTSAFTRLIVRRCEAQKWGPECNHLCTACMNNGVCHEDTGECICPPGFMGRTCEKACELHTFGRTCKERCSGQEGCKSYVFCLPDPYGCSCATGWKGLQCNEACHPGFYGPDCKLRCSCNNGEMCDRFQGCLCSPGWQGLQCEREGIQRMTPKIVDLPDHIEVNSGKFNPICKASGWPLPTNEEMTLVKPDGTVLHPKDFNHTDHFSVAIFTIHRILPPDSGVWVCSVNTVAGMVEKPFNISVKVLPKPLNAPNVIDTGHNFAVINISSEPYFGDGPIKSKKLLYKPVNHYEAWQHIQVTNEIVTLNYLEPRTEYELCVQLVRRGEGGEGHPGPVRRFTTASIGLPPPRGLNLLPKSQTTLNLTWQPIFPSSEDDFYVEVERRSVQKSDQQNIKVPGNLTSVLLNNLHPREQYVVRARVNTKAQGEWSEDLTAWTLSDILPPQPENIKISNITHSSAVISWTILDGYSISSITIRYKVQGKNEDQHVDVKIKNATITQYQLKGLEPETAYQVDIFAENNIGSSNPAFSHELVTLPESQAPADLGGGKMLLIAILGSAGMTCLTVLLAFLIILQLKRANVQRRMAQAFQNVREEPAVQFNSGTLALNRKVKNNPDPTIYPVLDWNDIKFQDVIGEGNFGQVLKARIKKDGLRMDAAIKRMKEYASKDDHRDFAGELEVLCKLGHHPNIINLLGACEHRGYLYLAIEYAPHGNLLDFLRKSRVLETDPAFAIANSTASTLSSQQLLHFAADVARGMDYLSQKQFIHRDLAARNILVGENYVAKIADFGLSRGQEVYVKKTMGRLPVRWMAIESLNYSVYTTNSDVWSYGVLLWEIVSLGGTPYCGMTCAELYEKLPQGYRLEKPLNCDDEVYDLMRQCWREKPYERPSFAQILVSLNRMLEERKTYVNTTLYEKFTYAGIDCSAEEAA

| IC50 | SMILES |
| --- | --- |
| 0.5 µM | FC(F)(F)c1cc(Br)c2nc(Nc3ccc(Oc4ccncc4)cc3)[nH]c2c1 [(5), (4-Bromo-6-trifluoromethyl-1H-benzimidazol-2-yl)[4-(pyridin-4-yloxy)phenyl]amine] |
| 0.9 µM | FC(F)(F)c1cc(Cl)c2nc(Nc3ccc(Oc4ccncc4)cc3)[nH]c2c1 [(14), (4-Chloro-6-trifluoromethyl-1H-benzimidazol-2-yl)[4-(pyridin-4-yloxy)phenyl]amine] |
| 4 µM | Cc1ccc2nc(Nc3ccc(Oc4ccncc4)cc3)[nH]c2c1 [(3), (6-Methyl-1H-benzimidazol-2-yl)[4-(pyridin-4-yloxy)phenyl]amine] |
